Consider 21 compounds from patent US11667630B2, “Nitrogen-containing 6-membered cyclic compound” (Asahi Kasei Pharma Corporation, priority 2017, dated 2023).

One assay concerns the target human EP4 receptor (Homo sapiens, UniProt P35408). Nature of the assay: Measurement of EP4 agonist activity (cAMP production). It is filed as cell-based. Details: expressed in transfected cells; host or cells: HEK293. The following applies: cAMP production in HEK293 cells stably expressing human EP4 receptor; average values where measured two or more times. As for the experimental part: In order to investigate EP4 receptor agonist activity of the compounds of the present invention, production of cAMP was measured in HEK293 cells that were made to stably express the human EP4 receptor.
By using Refseq Database, prostaglandin E receptor was searched for. As a result, gene information of human EP4 (NM_000958) receptor was obtained. On the basis of this sequence information, the human EP4 receptor gene was cloned by PCR in a conventional manner using human cDNA as the template, and HEK293 cells that were made to stably express the human EP4 receptor were established. When cryopreserved cells of this strain were thawed and used, cells subcultured three times or more within a certain period of time (about 1 to 2 weeks) by using Dulbecco's Modified Eagle's Medium (Dulbecco's Modified Eagle's Medium may be henceforth abbreviated as DMEM) containing 10% FBS, 50 units each of penicillin and streptomycin were used. The subcultured cells were inoculated in wells of a poly-D-lysine-coated 96-well plate at a density of 2×10^4 to 2.5×10^4 cells/well, and cultured for one day. The medium in the wells was removed by suction, then DMEM (80 μL) was added to each well, and incubation was performed at 37° C. for 15 minutes. […] The reaction was allowed at 37° C. for 30 minutes, then the medium was removed by suction, Assay/Lysis Buffer (100 μL) contained in cAMP Screen Kit (produced by Applied Biosystems) was added to terminate the reaction. Then, the reaction mixture was incubated at 37° C. for 30 minutes to prepare a sample for quantification of cAMP, and the amount of cAMP in the sample was quantified according to the method indicated in cAMP Screen Kit. By non-linear regression of the compound concentration and the amount of cAMP, the concentration of the compound required for increasing cAMP to 50% of the maximum increase (EC50 value) was calculated by using the Kaleida Graph.
(cAMP levels reflect the balance of adenylyl cyclase and phosphodiesterase activity.)

In the next assay the test system is rat femur. Kind of assay: Neo-osteogenesis action in rat femur. It is filed as in vivo. The following applies: female SD rats, one week after administration; for Bone mineral content of femur 1/3 center region (mg) Left femur (administered with compound): 100 μg test compound in in situ-solidified gel solution injected between quadriceps and periosteum. As to the method:
Eight weeks old female SD rats (Charles River Japan) were fixed in the side lying position under triple anesthesia (medetomidine hydrochloride, midazolam, and butorphanol tartrate). After hair of the left femoral region was shaved with a hair clipper, and disinfection treatment was performed with 70% ethanol, an in situ-solidified gel solution of a test compound, specifically, a test compound dissolved in poly(lactic-co-glycolic acid) (RESOMER RG502H, produced by Evonik Industries)/poly(lactic-co-glycolic acid)-polyethylene glycol block copolymer (5050 DLG mPEG 5000, produced by Lakeshore Biomaterials)/N-methyl-2-pyrroridone (produced by Wako) (weight ratio 47%/3%/50%), was filled in a 1-mL syringe, a 21G injection needle was attached to the syringe, and the needle was transdermally stabbed from the quadriceps to the periosteum near the center of the femoral diaphyseal. Then, 100 μg as the amount of the test compound, or 50 μL as the administration volume of the solution was injected between the quadriceps and the periosteum, and the injection needle was drawn out. To the rats of the control group, the aforementioned in situ-solidified gel solution alone was administered. One week after the administration of the drug solution, the triple anesthesia was given to the animals, and they were fixed in the supine position, and euthanized by bleeding. […], circumferential tissues such as muscles were removed, the bone mineral content of the whole femur was measured by using a bone mineral analyzer DCS-600EX (produced by ALOKA), then it was divided into three portions along the long axis, and the bone mineral content of the center part (diaphysis) was evaluated. The test was performed with the groups each consisting of 6 animals.

human EP4 receptor, sequence (P35408 whole entry): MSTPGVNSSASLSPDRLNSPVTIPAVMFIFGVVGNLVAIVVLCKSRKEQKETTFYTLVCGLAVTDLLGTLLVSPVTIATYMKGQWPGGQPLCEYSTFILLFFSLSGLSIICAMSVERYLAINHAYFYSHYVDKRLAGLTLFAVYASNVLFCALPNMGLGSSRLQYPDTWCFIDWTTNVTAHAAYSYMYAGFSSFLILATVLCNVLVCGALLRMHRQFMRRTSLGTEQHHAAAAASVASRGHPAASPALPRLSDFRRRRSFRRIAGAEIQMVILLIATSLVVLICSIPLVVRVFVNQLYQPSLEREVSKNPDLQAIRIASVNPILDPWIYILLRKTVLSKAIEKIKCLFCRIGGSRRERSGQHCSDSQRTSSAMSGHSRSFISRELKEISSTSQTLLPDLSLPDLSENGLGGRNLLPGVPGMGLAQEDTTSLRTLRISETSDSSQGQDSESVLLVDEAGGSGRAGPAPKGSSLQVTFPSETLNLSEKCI

In the case of `O=C(O)c1ccc(CCN2C(=O)SCCN2CCC(O)Cc2cccc(Br)c2)cc1` (centres unmarked) [Comparative Example 1, 4-(2-(4-(4-(3-Bromophenyl)-3-hydroxybutyl)-2-oxo-1,3,4-thiadiazinan-3-yl)ethyl)benzoic acid, reference compound], on human EP4 receptor, the response was half-maximal at 2.5 nM (EC50).

As to `O=C(O)c1ccc(CCN2C(=O)SCCN2CCC(O)Cc2cccc(C#Cc3ccsc3)c2)s1` (centres unmarked) [Example 1, 5-(2-(4-(3-Hydroxy-4-(3-(thiophen-3-ylethynyl)phenyl)butyl)-2-oxo-1,3,4-thiadiazinan-3-yl)ethyl)thiophene-2-carboxylic acid], the EC50 (commonly the midpoint of the concentration-response curve) at human EP4 receptor came to 0.045 nM.

As for `O=C(O)c1cc(Br)c(CCN2C(=O)SCCN2CCC(O)Cc2cccc(C#Cc3ccsc3)c2)s1` (centres unmarked) [Example 2, 4-Bromo-5-(2-(4-(3-hydroxy-4-(3-(thiophen-3-ylethynyl)phenyl)butyl)-2-oxo-1,3,4-thiadiazinan-3-yl)ethyl)thiophene-2-carboxylic acid], the EC50 on human EP4 receptor was 0.035 nM.

Turning to `O=C(O)c1ccc(CCN2C(=O)SCCN2CCC(O)Cc2cccc(C#Cc3cccs3)c2)s1` (centres unmarked) [Example 3, 5-(2-(4-(3-Hydroxy-4-(3-(thiophen-2-ylethynyl)phenyl)butyl)-2-oxo-1,3,4-thiadiazinan-3-yl)ethyl)thiophene-2-carboxylic acid], the “Bone mineral content of femur 1/3 center region (mg) Left femur (administered with compound)” value with rat femur was 80.2 ± 2.6 mg. In the assay on rat femur (contralateral femur, 100 μg test compound given at left femur), the “Bone mineral content of femur 1/3 center region (mg) Right femur (no administration of compound)” value worked out at 66.7 ± 2.7 mg. The same compound registered an EC50 on human EP4 receptor of 0.13 nM.

Compound `Cc1cscc1C#Cc1cccc(CC(O)CCN2CCSC(=O)N2CCc2ccc(C(=O)O)s2)c1` (centres unmarked) [Example 4, 5-(2-(4-(3-Hydroxy-4-(3-((4-methylthiophen-3-yl)ethynyl)phenyl)butyl)-2-oxo-1,3,4-thiadiazinan-3-yl)ethyl)thiophene-2-carboxylic acid] displayed an EC50 on human EP4 receptor of 0.34 nM. That is a sub-nanomolar value.

`O=C(O)c1ccc(CCN2C(=O)SCCN2CCC(O)Cc2cccc(C#Cc3ccsc3Cl)c2)s1` (centres unmarked) [Example 5, 5-(2-(4-(4-(3-((2-Chlorothiophen-3-yl)ethynyl)phenyl)-3-hydroxybutyl)-2-oxo-1,3,4-thiadiazinan-3-yl)ethyl)thiophene-2-carboxylic acid] came in with an EC50 at human EP4 receptor of 0.3 nM.

The compound `N#Cc1cscc1C#Cc1cccc(CC(O)CCN2CCSC(=O)N2CCc2ccc(C(=O)O)s2)c1` (centres unmarked) [Example 7, 5-(2-(4-(4-(3-((4-Cyanothiophen-3-yl)ethynyl)phenyl)-3-hydroxybutyl)-2-oxo-1,3,4-thiadiazinan-3-yl)ethyl)thiophene-2-carboxylic acid] gave an EC50 on human EP4 receptor of 0.09 nM. Compared with the last compound, the EC50 is about 3.3-fold lower.

In the case of `N#Cc1sccc1C#Cc1cccc(CC(O)CCN2CCSC(=O)N2CCc2ccc(C(=O)O)s2)c1` (centres unmarked) [Example 8, 5-(2-(4-(4-(3-((2-Cyanothiophen-3-yl)ethynyl)phenyl)-3-hydroxybutyl)-2-oxo-1,3,4-thiadiazinan-3-yl)ethyl)thiophene-2-carboxylic acid], the “Bone mineral content of femur 1/3 center region (mg) Left femur (administered with compound)” value with rat femur is 98.7 ± 4.1 mg.

With `O=C(O)c1ccc(CCN2C(=O)SCCN2CCC(O)Cc2cccc(C#Cc3cscn3)c2)s1` (centres unmarked) [Example 9, 5-(2-(4-(3-Hydroxy-4-(3-(thiazol-4-ylethynyl)phenyl)butyl)-2-oxo-1,3,4-thiadiazinan-3-yl)ethyl)thiophene-2-carboxylic acid], the EC50 on human EP4 receptor was determined as 0.09 nM.

In the case of `O=C(O)c1ccc(CCN2C(=O)SCCN2CCC(O)Cc2cccc(C#Cc3ccco3)c2)s1` (centres unmarked) [Example 11, 5-(2-(4-(4-(3-(Furan-2-ylethynyl)phenyl)-3-hydroxybutyl)-2-oxo-1,3,4-thiadiazinan-3-yl)ethyl)thiophene-2-carboxylic acid], a half-maximal response on human EP4 receptor (EC50) required 0.09 nM.

`N#Cc1cc(C#Cc2cccc(CC(O)CCN3CCSC(=O)N3CCc3ccc(C(=O)O)s3)c2)cs1` (centres unmarked) [Example 12, 5-(2-(4-(4-(3-((5-Cyanothiophen-3-yl)ethynyl)phenyl)-3-hydroxybutyl)-2-oxo-1,3,4-thiadiazinan-3-yl)ethyl)thiophene-2-carboxylic acid] had an EC50 at human EP4 receptor of 0.6 nM.

The compound `N#Cc1ccsc1C#Cc1cccc(CC(O)CCN2CCSC(=O)N2CCc2ccc(C(=O)O)s2)c1` (centres unmarked) [Example 14, 5-(2-(4-(4-(3-((3-Cyanothiophen-2-yl)ethynyl)phenyl)-3-hydroxybutyl)-2-oxo-1,3,4-thiadiazinan-3-yl)ethyl)thiophene-2-carboxylic acid] gave an EC50 at human EP4 receptor of 0.3 nM.

Consider `O=C(O)c1ccc(CCN2C(=O)SCCN2CCC(O)Cc2cccc(C#Cc3ccccc3)c2)s1` (centres unmarked) [Example 15, 5-(2-(4-(3-Hydroxy-4-(3-(phenylethynyl)phenyl)butyl)-2-oxo-1,3,4-thiadiazinan-3-yl)ethyl)thiophene-2-carboxylic acid], for which, on human EP4 receptor, the EC50 amounted to 0.63 nM.

`COc1ccccc1C#Cc1cccc(CC(O)CCN2CCSC(=O)N2CCc2ccc(C(=O)O)s2)c1` (centres unmarked) [Example 16, 5-(2-(4-(3-Hydroxy-4-(3-((2-methoxyphenyl)ethynyl)phenyl)butyl)-2-oxo-1,3,4-thiadiazinan-3-yl)ethyl)thiophene-2-carboxylic acid] came in with an EC50 at human EP4 receptor of 0.4 nM.

Compound `O=C(O)c1cc(Cl)c(CCN2C(=O)SCCN2CCC(O)Cc2cccc(C#Cc3ccsc3)c2)s1` (centres unmarked) [Example 17, 4-Chloro-5-(2-(4-(3-hydroxy-4-(3-(thiophen-3-ylethynyl)phenyl)butyl)-2-oxo-1,3,4-thiadiazinan-3-yl)ethyl)thiophene-2-carboxylic acid] registered an EC50 at human EP4 receptor of 0.026 nM.

With `Cc1ccc(CC(O)CCN2CCSC(=O)N2CCc2ccc(C(=O)O)s2)cc1C#Cc1ccsc1` (centres unmarked) [Example 18, 5-(2-(4-(3-Hydroxy-4-(4-methyl-3-(thiophen-3-ylethynyl)phenyl)butyl)-2-oxo-1,3,4-thiadiazinan-3-yl)ethyl)thiophene-2-carboxylic acid], at human EP4 receptor, the EC50 is 0.1 nM. This EC50 is about 3.8-fold higher than that of the compound before.

As for `O=C(O)c1ccc(CCN2C(=O)SCCN2CCC(O)Cc2cccc(C#Cc3cscc3-c3ccccc3)c2)s1` (centres unmarked) [Example 21, 5-(2-(4-(3-Hydroxy-4-(3-((4-phenylthiophen-3-yl)ethynyl)phenyl)butyl)-2-oxo-1,3,4-thiadiazinan-3-yl)ethyl)thiophene-2-carboxylic acid], at human EP4 receptor, a half-maximal effect (EC50) was put at 0.5 nM. Against the preceding compound, the EC50 is about 5-fold higher.

As to `N#Cc1sccc1C#Cc1cccc(C[C@H](O)CCN2CCSC(=O)N2CCc2ccc(C(=O)O)s2)c1` [Example 24, (S)-5-(2-(4-(4-(3-((2-Cyanothiophen-3-yl)ethynyl)phenyl)-3-hydroxybutyl)-2-oxo-1,3,4-thiadiazinan-3-yl)ethyl)thiophene-2-carboxylic acid], the “Bone mineral content of femur 1/3 center region (mg) Left femur (administered with compound)” value with rat femur is recorded as 80.7 ± 4.0 mg.

`O=C(O)c1ccc(CCN2C(=O)SCCN2CCC(O)Cc2cccc(/C=C/c3ccsc3)c2)s1` (centres unmarked) [Example 27, (E)-5-(2-(4-(3-Hydroxy-4-(3-(2-(thiophen-3-yl)vinyl)phenyl)butyl)-2-oxo-1,3,4-thiadiazinan-3-yl)ethyl)thiophene-2-carboxylic acid] came in with an EC50 at human EP4 receptor of 0.09 nM.

Turning to `O=C(O)c1cc(Cl)c(CCN2C(=O)SCCN2CCC(O)Cc2cccc(C#Cc3ccccn3)c2)s1` (centres unmarked) [Example 28, 4-Chloro-5-(2-(4-(3-hydroxy-4-(3-(pyridin-2-ylethynyl)phenyl)butyl)-2-oxo-1,3,4-thiadiazinan-3-yl)ethyl)thiophene-2-carboxylic acid], on human EP4 receptor, the EC50 worked out at 0.087 nM. This EC50 and that of the compound before are within 1.5-fold of each other.

`O=C(O)c1ccc(CCN2C(=O)OCCN2CCC(O)Cc2cccc(C#Cc3ccsc3)c2)s1` (centres unmarked) [Example 29, 5-(2-(4-(3-Hydroxy-4-(3-(thiophen-3-ylethynyl)phenyl)butyl)-2-oxo-1,3,4-oxadiazinan-3-yl)ethyl)thiophene-2-carboxylic acid]: a half-maximal response on human EP4 receptor (EC50) required 0.16 nM.
